What was measured:
[1] = system: catecholamine release from permeabilized bovine chromaffin cells; assay type: cell-based; details: for IC50: read-out: concentration reaching 50% inhibitory activity (inhibition of Ca2+ dependent secretion); for effect on Ca2+ dependent (Ca2+-triggered) secretion: peptides at 100 μM concentration, FIG. 7A
mouse neuron = experiment: Mouse neuron inhibition assay (Mehta, et al., 1996); assay type: cell-based
Protocol: ii. 47% at 2 μM; 87% at 20 μM, as measured in the mouse neuron inhibition assay described in, for example, Mehta, et al., Proc. Natl. Acad. Sci. USA, 93:10471-10476, 1996 (incorporated herein for purposes of reference).

Substance | IC50 [1] | effect on Ca2+ dependent (Ca2+-triggered) secretion [1] | also measured
170-EIDTQNRQIDRIMEKADSNK-189 [ESUP/E20h] | 1800 nM |  | 
181-IMEKADSNKTRIDEANQRATKMLGSG-206 [ESUP/E26h] | 250 nM |  | 
187-SNKTRIDEANQRATKMLGSG-206 [ESUP/A20h, 20-mer peptide encompassing the C-terminal region of SNAP-25 (aa 187-206)] | 12000 nM |  | Inhibitory Activity (mouse neuron; at 2 μM peptide): 47%; Inhibitory Activity (mouse neuron; at 20 μM peptide): 87%; Inhibitory Activity ([1]; at 100 μM peptide, bovine chromaffin cells): 65%
MLDEQGEQLER [SNAP-25(49-59), reference compound] |  | did not affect | 
TDSSGREMIKANKQLANGTR [ESUP/20Ah^RD, control peptide with the same amino acid composition as ESUP/A20h but in random order, reference compound] |  | no effect | 

— patent US6169074A, “Peptide inhibitors of neurotransmitter secretion by neuronal cells” (The Regents of the University of California, priority 1997, dated 2001)
